ChEMBL document CHEMBL4507291 (2021)

Columns and labels:
[1] = biological target: ALK tyrosine kinase receptor (Homo sapiens) (UniProt Q9UM73)
[2] = biological target: Ankyrin repeat and protein kinase domain-containing protein 1 (Homo sapiens) (UniProt Q8NFD2)
[3] = biological target: Cyclin-dependent kinase-like 5 (Homo sapiens) (UniProt O76039)
[4] = biological target: Dual specificity protein kinase CLK3 (Homo sapiens) (UniProt P49761)
[5] = biological target: Receptor tyrosine-protein kinase erbB-4 (Homo sapiens) (UniProt Q15303)
[6] = test system: Receptor-type tyrosine-protein kinase FLT3 (Homo sapiens), P36888 [UNDEFINED MUTATION]
[7] = biological target: Glycogen synthase kinase-3 beta (Homo sapiens) (UniProt P49841)
[8] = biological target: T1, Homeodomain-interacting protein kinase 4 (Homo sapiens) (UniProt Q8NE63)
T1 sequence (whole entry): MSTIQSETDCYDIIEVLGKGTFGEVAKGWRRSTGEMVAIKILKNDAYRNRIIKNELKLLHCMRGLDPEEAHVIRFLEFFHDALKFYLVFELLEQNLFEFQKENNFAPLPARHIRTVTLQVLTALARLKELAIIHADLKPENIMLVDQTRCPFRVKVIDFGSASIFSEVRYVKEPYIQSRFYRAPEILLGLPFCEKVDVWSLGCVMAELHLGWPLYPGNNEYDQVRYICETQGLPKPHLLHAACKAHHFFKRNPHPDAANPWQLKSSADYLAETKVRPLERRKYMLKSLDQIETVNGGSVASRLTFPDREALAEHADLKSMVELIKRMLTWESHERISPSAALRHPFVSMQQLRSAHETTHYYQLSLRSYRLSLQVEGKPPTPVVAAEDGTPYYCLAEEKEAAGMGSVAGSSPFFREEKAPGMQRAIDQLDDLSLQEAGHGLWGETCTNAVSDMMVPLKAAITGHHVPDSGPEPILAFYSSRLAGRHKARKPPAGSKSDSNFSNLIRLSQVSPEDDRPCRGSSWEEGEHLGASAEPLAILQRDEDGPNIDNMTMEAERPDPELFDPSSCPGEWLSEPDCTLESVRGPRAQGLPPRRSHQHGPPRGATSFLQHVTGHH

[9] = test system: Mast/stem cell growth factor receptor Kit (Homo sapiens), P10721 [V559D,T670I]
[10] = biological target: Serine/threonine-protein kinase 38-like (Homo sapiens) (UniProt Q9Y2H1)
[11] = biological target: Phosphorylase b kinase regulatory subunit alpha, liver isoform (Homo sapiens) (UniProt P46019)
[12] = test system: Phosphatidylinositol 4,5-bisphosphate 3-kinase catalytic subunit alpha isoform (Homo sapiens), P42336 [M1043I]
[13] = biological target: Serine/threonine-protein kinase PLK2 (Homo sapiens) (UniProt Q9NYY3)
[14] = biological target: T2, Protein kinase C epsilon type (Homo sapiens) (UniProt Q02156)
T2 sequence (whole entry): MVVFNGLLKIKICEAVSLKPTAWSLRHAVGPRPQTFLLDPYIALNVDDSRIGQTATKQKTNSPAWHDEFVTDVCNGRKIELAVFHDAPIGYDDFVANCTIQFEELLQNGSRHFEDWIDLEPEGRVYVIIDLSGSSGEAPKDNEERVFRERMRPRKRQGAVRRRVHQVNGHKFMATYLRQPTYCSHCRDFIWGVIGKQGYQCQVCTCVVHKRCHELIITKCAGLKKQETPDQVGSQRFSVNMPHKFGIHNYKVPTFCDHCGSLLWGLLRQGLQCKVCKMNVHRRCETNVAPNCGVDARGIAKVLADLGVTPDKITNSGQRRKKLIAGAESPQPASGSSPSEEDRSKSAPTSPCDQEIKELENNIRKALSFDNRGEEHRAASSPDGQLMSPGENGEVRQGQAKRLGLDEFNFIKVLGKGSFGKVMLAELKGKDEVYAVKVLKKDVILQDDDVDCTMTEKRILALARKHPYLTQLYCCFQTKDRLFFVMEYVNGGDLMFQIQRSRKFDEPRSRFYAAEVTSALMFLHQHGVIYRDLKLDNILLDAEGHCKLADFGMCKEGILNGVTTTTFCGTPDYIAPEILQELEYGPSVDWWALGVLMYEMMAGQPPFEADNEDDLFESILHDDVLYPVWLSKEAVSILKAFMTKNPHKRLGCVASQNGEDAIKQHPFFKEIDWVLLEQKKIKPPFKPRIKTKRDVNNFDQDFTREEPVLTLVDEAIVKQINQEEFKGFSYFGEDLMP

[15] = biological target: Ribosomal protein S6 kinase alpha-2 (Homo sapiens) (UniProt Q15349)
[16] = biological target: Ribosomal protein S6 kinase alpha-6 (Homo sapiens) (UniProt Q9UK32)
[17] = biological target: Serine/threonine-protein kinase 35 (Homo sapiens) (UniProt Q8TDR2)
[18] = biological target: Transient receptor potential cation channel subfamily M member 6 (Homo sapiens) (UniProt Q9BX84)
[19] = biological target: D(1B) dopamine receptor (Homo sapiens) (UniProt P21918); conditions: Compound concentration 10.0 uM
[20] = biological target: T3, Alpha-2B adrenergic receptor (Homo sapiens) (UniProt P18089); conditions: Compound concentration 10.0 uM
T3 sequence (whole entry): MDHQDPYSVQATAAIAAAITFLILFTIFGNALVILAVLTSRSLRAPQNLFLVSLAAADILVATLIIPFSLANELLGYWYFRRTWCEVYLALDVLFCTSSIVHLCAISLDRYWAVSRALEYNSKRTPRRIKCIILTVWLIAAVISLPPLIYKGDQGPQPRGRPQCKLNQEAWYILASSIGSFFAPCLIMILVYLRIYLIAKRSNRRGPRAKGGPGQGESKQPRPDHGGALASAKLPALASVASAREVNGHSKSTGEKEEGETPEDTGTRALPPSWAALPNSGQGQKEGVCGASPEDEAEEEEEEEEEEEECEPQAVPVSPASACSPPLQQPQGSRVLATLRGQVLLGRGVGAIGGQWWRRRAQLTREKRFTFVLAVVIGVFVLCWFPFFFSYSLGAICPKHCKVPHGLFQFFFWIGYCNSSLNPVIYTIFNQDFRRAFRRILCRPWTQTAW

[21] = Compound concentration 1000.0 nM
[22] = Compound concentration 100.0 nM

Phosphorylase b kinase regulatory subunit alpha, liver isoform (Homo sapiens), sequence (P46019 whole entry, canonical isoform): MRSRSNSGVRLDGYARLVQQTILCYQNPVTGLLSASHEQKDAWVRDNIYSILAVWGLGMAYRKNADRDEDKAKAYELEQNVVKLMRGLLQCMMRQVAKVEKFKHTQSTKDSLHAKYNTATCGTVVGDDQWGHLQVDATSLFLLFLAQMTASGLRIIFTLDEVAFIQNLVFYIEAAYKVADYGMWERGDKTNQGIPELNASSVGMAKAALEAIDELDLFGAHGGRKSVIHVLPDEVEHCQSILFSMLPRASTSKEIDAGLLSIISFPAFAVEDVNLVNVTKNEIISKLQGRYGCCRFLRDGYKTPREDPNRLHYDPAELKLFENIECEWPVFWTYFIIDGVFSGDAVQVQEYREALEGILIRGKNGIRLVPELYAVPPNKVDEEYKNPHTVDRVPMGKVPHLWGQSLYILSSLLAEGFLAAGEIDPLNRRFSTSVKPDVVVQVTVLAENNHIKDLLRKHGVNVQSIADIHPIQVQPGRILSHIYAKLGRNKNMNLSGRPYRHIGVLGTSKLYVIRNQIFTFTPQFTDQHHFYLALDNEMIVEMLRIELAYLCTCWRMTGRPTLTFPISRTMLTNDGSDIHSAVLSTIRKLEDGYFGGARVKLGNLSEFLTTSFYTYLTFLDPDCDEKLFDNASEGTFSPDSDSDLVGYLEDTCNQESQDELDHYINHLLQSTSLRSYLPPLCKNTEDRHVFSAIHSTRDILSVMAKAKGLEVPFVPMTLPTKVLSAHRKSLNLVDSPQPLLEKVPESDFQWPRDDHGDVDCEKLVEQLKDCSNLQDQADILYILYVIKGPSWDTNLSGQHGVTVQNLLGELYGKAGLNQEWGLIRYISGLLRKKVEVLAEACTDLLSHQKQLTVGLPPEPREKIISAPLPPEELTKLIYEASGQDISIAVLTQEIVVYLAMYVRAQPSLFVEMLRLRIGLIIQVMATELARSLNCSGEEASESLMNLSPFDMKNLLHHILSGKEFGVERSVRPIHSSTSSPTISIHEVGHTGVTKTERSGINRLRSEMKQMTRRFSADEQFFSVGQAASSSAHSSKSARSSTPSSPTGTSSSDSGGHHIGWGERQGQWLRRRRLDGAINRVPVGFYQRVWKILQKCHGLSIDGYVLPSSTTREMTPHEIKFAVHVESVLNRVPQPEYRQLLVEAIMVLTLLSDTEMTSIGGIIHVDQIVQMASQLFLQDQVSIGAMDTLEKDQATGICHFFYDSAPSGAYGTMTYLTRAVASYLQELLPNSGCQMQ
Phosphatidylinositol 4,5-bisphosphate 3-kinase catalytic subunit alpha isoform (Homo sapiens), P42336 [M1043I], sequence (P42336 whole entry M1043I, canonical isoform): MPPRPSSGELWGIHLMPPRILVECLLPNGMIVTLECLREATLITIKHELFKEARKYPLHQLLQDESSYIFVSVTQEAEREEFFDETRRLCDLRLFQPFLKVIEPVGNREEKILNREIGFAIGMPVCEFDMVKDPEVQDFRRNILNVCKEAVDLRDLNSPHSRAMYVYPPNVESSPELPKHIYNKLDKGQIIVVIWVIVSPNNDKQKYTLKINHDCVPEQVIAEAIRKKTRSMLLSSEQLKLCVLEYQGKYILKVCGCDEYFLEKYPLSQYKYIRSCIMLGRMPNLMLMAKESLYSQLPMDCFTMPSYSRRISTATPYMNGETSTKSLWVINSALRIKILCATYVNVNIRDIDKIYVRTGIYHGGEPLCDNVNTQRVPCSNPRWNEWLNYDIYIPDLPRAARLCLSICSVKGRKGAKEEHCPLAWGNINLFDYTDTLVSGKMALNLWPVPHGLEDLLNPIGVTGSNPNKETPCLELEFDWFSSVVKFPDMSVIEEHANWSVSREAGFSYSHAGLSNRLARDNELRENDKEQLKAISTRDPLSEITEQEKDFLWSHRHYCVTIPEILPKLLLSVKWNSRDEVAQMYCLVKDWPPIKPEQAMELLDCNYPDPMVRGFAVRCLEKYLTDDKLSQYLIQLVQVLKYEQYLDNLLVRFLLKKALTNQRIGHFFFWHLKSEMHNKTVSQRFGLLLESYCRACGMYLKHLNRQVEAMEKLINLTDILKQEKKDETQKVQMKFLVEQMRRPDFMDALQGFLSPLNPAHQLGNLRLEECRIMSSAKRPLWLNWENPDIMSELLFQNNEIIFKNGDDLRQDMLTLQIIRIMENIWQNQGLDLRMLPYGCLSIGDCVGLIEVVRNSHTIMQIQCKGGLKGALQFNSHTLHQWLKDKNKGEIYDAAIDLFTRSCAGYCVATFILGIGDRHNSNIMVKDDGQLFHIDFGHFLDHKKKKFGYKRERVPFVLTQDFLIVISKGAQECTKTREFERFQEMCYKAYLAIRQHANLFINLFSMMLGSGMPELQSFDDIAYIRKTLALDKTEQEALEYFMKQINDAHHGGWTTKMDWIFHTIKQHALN
Transient receptor potential cation channel subfamily M member 6 (Homo sapiens), sequence (Q9BX84 whole entry): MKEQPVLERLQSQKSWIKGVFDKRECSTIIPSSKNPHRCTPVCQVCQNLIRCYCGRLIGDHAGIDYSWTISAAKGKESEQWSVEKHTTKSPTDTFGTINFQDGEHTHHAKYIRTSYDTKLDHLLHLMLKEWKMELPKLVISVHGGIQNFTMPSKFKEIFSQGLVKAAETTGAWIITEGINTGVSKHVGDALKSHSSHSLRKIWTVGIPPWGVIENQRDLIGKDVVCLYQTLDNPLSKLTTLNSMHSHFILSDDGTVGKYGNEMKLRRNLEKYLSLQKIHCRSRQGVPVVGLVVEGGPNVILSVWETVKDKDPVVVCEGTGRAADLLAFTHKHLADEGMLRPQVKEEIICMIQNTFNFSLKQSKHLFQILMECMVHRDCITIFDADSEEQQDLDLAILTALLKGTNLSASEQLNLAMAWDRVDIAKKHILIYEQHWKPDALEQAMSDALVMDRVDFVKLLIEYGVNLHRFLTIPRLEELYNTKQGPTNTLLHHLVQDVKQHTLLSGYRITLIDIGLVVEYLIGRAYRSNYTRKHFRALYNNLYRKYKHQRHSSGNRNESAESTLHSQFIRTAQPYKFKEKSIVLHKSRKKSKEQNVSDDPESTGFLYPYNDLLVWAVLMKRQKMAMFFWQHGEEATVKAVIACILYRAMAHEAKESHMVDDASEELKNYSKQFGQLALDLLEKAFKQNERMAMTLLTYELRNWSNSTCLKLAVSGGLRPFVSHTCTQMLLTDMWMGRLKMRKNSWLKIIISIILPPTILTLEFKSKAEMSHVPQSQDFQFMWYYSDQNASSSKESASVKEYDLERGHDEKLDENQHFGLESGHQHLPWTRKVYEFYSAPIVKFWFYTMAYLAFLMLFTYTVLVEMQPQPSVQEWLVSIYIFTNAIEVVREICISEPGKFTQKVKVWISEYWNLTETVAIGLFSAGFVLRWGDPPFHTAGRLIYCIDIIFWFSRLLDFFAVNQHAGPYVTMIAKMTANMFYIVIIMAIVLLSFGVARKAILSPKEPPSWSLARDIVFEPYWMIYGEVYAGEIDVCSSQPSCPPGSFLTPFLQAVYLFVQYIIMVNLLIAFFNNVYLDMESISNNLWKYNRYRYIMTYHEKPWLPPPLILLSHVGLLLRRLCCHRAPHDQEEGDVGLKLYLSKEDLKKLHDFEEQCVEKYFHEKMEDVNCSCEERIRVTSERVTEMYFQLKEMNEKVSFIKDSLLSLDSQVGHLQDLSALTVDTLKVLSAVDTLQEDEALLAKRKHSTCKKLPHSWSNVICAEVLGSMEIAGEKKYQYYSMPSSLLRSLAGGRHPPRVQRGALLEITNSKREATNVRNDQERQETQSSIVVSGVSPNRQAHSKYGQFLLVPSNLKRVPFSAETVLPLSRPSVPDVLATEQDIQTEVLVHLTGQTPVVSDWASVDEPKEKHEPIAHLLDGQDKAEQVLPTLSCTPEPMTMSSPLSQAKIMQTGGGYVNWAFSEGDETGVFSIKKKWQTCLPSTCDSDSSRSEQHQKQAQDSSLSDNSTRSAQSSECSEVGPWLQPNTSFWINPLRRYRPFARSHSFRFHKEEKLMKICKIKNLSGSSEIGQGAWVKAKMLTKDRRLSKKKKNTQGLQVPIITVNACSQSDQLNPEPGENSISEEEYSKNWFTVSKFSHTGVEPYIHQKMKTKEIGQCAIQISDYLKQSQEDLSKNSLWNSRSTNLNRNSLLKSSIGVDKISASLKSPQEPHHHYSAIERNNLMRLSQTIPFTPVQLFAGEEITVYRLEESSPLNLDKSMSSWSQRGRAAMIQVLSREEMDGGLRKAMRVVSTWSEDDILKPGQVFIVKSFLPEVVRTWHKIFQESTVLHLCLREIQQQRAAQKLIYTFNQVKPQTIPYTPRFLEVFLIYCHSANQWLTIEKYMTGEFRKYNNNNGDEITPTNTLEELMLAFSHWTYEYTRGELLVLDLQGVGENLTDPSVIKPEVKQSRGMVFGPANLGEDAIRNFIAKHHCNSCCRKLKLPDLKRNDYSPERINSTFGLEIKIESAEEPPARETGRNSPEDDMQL
Ribosomal protein S6 kinase alpha-2 (Homo sapiens), sequence (Q15349 whole entry): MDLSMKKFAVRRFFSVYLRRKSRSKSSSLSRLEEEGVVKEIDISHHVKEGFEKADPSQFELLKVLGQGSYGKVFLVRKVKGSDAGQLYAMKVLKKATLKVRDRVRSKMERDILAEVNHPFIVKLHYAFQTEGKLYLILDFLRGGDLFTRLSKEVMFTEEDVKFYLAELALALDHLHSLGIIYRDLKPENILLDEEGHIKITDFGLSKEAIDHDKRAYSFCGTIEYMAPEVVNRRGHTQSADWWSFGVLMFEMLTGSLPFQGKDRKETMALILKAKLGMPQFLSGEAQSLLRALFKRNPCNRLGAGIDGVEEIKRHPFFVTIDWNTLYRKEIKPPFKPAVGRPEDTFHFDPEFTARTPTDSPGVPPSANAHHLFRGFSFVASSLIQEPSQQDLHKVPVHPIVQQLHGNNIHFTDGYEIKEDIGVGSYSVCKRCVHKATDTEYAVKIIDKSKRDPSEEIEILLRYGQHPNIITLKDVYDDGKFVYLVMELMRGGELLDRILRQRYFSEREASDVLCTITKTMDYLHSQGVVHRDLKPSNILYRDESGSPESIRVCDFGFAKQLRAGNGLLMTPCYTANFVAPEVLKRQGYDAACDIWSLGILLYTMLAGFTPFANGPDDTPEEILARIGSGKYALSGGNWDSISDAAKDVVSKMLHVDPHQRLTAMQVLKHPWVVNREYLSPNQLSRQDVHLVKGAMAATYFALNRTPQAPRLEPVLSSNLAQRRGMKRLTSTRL

C[C@@H]1CN(c2cc(-c3nn(C)c4ccc(OC5(C)CC5)cc34)ncn2)C[C@H](C)O1 [MLi-2-NC]
inactive: residual activity [1, 21] 64% | residual activity [2, 21] 67% | residual activity [3, 21] 64% | residual activity [4, 21] 98% | residual activity [5, 21] 96% | residual activity [6, 21] 91% | residual activity [7, 21] 91% | residual activity [8, 21] 79% | residual activity [9, 21] 100% | residual activity [10, 21] 72% | residual activity [11, 21] 100% | residual activity [12, 21] 96% | residual activity [13, 21] 68% | residual activity [14, 21] 100% | residual activity [15, 21] 88% | residual activity [16, 21] 79% | residual activity [17, 21] 100% | residual activity [18, 21] 85% | inhibition [19] 3.61% | inhibition [20] 27.2%

C[C@@H]1CN(c2cc(-c3n[nH]c4ccc(OC5(C)CC5)cc34)ncn2)C[C@H](C)O1 [MLi-2]
inactive: residual activity [1, 22] 65% | residual activity [2, 22] 79% | residual activity [3, 22] 72% | residual activity [4, 22] 94% | residual activity [5, 22] 90% | residual activity [6, 22] 100% | residual activity [7, 22] 90% | residual activity [8, 22] 97% | residual activity [9, 22] 95% | residual activity [10, 22] 85% | residual activity [11, 22] 91% | residual activity [12, 22] 82% | residual activity [13, 22] 76% | residual activity [14, 22] 95% | residual activity [15, 22] 92% | residual activity [16, 22] 85% | residual activity [17, 22] 85% | residual activity [18, 22] 64% | inhibition [19] 16.1% | inhibition [20] 6.1%
